Reference: the supplement of paper PMC10627819

What was measured:
[1] = tested on: S. aureus DSM 20231; assay: Bliss interaction score (quartile over a dose matrix) (fitness difference); higher = more antagonism (negative = synergy)
Method in brief: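 Values were capped at 1 after dividing OD595 at stationary-phase entry by the plate's robust no-drug mean. This ratio is fitness, and single-drug fitness was inferred from the combination data. The Bliss score is observed minus product-expected fitness, given as quartiles over technical, biological and donor/recipient replicates.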

[2] = tested on: S. aureus DSM 20231; assay: fitness (endpoint OD595 vs no drug) (fraction); higher = more growth
Method in brief: (§1)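 Bacterial fitness was scored as optical density at the stationary-phase transition relative to the robust mean of no-drug control wells. Scores are capped at 1. The growth data were OD595 readings every 30 min for 14 h at 37 °C, background-subtracted against the first reading, from 384-well plates inoculated at OD595 0.01 in TSB, LB Lennox or CY.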

[3] = tested on: S. aureus Newman; assay: as above
Method in brief: as §1

[4] = tested on: S. pneumoniae D39V; assay: as above
Method in brief: as §1

[5] = tested on: B. subtilis 168; assay: as above
Method in brief: as §1
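Wherever Bliss interaction score (quartile over a dose matrix) is given: first quartile when negative (synergy) and third quartile when positive (antagonism).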

CNC(C)C1CCC(N)C(OC2C(N)CC(N)C(OC3OCC(C)(O)C(NC)C3O)C2O)O1 (configuration not stated) [Gentamicin] + CC[C@H](c1ccc(O)cc1)[C@@H](CC)c1ccc(O)cc1 [Hexestrol]
Conditions | Bliss interaction score
[1], main component drawn | -0.536

Cc1cc(NS(=O)(=O)c2ccc(N)cc2)no1 [Sulfamethoxazol] + CN[C@@H]1[C@H](O)[C@H](NC)[C@H]2O[C@@]3(O)C(=O)C[C@@H](C)O[C@H]3O[C@@H]2[C@H]1O [Spectinomycin]
fitness
Conditions | first compound 1 µg/mL | first compound 2 µg/mL | first compound 4 µg/mL
[2], partner 4 µg/mL | 0.897 | 0.896 | 0.994
[2], partner 8 µg/mL | 0.822 | 0.861 | 0.957
[2], partner 16 µg/mL | 0.763 | 0.812 | 0.849
[3], partner 4 µg/mL | 0.972 | 0.964 | 0.983
[3], partner 8 µg/mL | 0.986 | 0.985 | 0.967
[3], partner 16 µg/mL | 0.877 | 0.927 | 0.925
[4], partner 4 µg/mL | 0.954 | 0.889 | 0.924
[4], partner 8 µg/mL | 0.935 | 0.899 | 0.922
[5], partner 2 µg/mL | 0.926 | 0.853 | 0.941
[5], partner 4 µg/mL | 0.92 | 0.861 | 0.959
[5], partner 8 µg/mL | 0.96 | 0.891 | 0.891

one replicate
Conditions | fitness
[2], first compound 1 µg/mL, partner 32 µg/mL | 0.826
[2], first compound 1 µg/mL, partner 64 µg/mL | 0.08
[2], first compound 2 µg/mL, partner 32 µg/mL | 0.796
[2], first compound 2 µg/mL, partner 64 µg/mL | 0.0783
[2], first compound 4 µg/mL, partner 32 µg/mL | 0.802
[2], first compound 4 µg/mL, partner 64 µg/mL | 0.0708
[3], first compound 1 µg/mL, partner 32 µg/mL | 0.589
[3], first compound 1 µg/mL, partner 64 µg/mL | 0.0829
[3], first compound 2 µg/mL, partner 32 µg/mL | 0.577
[3], first compound 2 µg/mL, partner 64 µg/mL | 0.0759
[3], first compound 4 µg/mL, partner 32 µg/mL | 0.581
[3], first compound 4 µg/mL, partner 64 µg/mL | 0.0529
[3], first compound 8 µg/mL, partner 4 µg/mL | ≥ 1
[3], first compound 8 µg/mL, partner 8 µg/mL | 0.959
[3], first compound 8 µg/mL, partner 16 µg/mL | 0.905
[4], first compound 1 µg/mL, partner 16 µg/mL | 0.691
[4], first compound 2 µg/mL, partner 16 µg/mL | 0.634
[4], first compound 4 µg/mL, partner 16 µg/mL | 0.702
[5], first compound 0.5 µg/mL, partner 2 µg/mL | 0.916
[5], first compound 0.5 µg/mL, partner 4 µg/mL | 0.882
[5], first compound 0.5 µg/mL, partner 8 µg/mL | 0.851

CN(C)CCCN1c2ccccc2Sc2ccc(Cl)cc21 [Chlorpromazine] + C[C@H]1c2cccc(O)c2C(=O)C2=C(O)[C@]3(O)C(=O)C(C(N)=O)=C(O)[C@@H](N(C)C)[C@@H]3[C@@H](O)[C@@H]21 [Doxycycline]
Conditions | Bliss interaction score
[1] | -0.263

CN1CCC[C@H]1c1cccnc1 [Nicotine] + CC[C@H]1OC(=O)[C@H](C)C(=O)[C@H](C)[C@@H](O[C@@H]2O[C@H](C)C[C@H](N(C)C)[C@H]2O)[C@](C)(OC)C[C@@H](C)C(=O)[C@H](C)[C@H]2N(CCCCn3cnc(-c4cccnc4)c3)C(=O)O[C@]12C [Telithromycin]
Conditions | Bliss interaction score
[1] | -0.342

CC[C@H]1OC(=O)[C@H](C)[C@@H](O[C@H]2C[C@@](C)(OC)[C@@H](O)[C@H](C)O2)[C@H](C)[C@@H](O[C@@H]2O[C@H](C)C[C@H](N(C)C)[C@H]2O)[C@](C)(O)C[C@@H](C)CN(C)[C@H](C)[C@@H](O)[C@]1(C)O [Azithromycin] + CN(C)[C@@H]1C(O)=C(C(N)=O)C(=O)[C@@]2(O)C(O)=C3C(=O)c4c(O)ccc(Cl)c4[C@@](C)(O)[C@H]3C[C@@H]12 [Chlortetracycline]
one replicate
Conditions | fitness
[2], first compound 0.125 µg/mL, partner 0.006 µg/mL | 0.629
[2], first compound 0.25 µg/mL, partner 0.006 µg/mL | 0.46
[2], first compound 0.5 µg/mL, partner 0.006 µg/mL | 0.0187
[5], first compound 2 µg/mL, partner 0.0475 µg/mL | 0.0292
[5], first compound 2 µg/mL, partner 0.095 µg/mL | 0.0192
[5], first compound 2 µg/mL, partner 0.19 µg/mL | 0.025

fitness
Conditions | first compound 0.125 µg/mL | first compound 0.25 µg/mL | first compound 0.5 µg/mL
[2], partner 0.012 µg/mL | – | – | 0.0274
[2], partner 0.024 µg/mL | 0.112 | 0.0335 | 0.0241
[2], partner 0.048 µg/mL | 0.0779 | 0.0451 | 0.0364
[5], partner 0.0475 µg/mL | – | 0.824 | –

CC[C@H]1OC(=O)[C@H](C)[C@@H](O[C@H]2C[C@@](C)(OC)[C@@H](O)[C@H](C)O2)[C@H](C)[C@@H](O[C@@H]2O[C@H](C)C[C@H](N(C)C)[C@H]2O)[C@](C)(O)C[C@@H](C)CN(C)[C@H](C)[C@@H](O)[C@]1(C)O [Azithromycin] + O=C(O)c1cc(-c2ccc(F)cc2F)ccc1O [Diflunisal]
Conditions | Bliss interaction score
[1] | -0.146

CC[C@H]1OC(=O)[C@H](C)[C@@H](O[C@H]2C[C@@](C)(OC)[C@@H](O)[C@H](C)O2)[C@H](C)[C@@H](O[C@@H]2O[C@H](C)C[C@H](N(C)C)[C@H]2O)[C@](C)(O)C[C@@H](C)CN(C)[C@H](C)[C@@H](O)[C@]1(C)O [Azithromycin] + Cc1c(Cl)cccc1Nc1ccccc1C(=O)O [Tolfenamic]
Conditions | Bliss interaction score
[1] | -0.292

CC[C@H]1OC(=O)[C@H](C)[C@@H](O[C@H]2C[C@@](C)(OC)[C@@H](O)[C@H](C)O2)[C@H](C)[C@@H](O[C@@H]2O[C@H](C)C[C@H](N(C)C)[C@H]2O)[C@](C)(O)C[C@@H](C)CN(C)[C@H](C)[C@@H](O)[C@]1(C)O [Azithromycin] + CN1CCN(C2=Nc3ccccc3Oc3ccc(Cl)cc32)CC1 [Loxapine]
Conditions | Bliss interaction score
[1] | -0.147

CC[C@H]1OC(=O)[C@H](C)[C@@H](O[C@H]2C[C@@](C)(OC)[C@@H](O)[C@H](C)O2)[C@H](C)[C@@H](O[C@@H]2O[C@H](C)C[C@H](N(C)C)[C@H]2O)[C@](C)(O)C[C@@H](C)CN(C)[C@H](C)[C@@H](O)[C@]1(C)O [Azithromycin] + N[C@@H]1CONC1=O [Cycloserine D]
fitness
Conditions | first compound 0.125 µg/mL | first compound 0.25 µg/mL | first compound 0.5 µg/mL
[2], partner 0.375 µg/mL | 0.935 | 0.881 | –
[2], partner 0.75 µg/mL | 0.887 | 0.869 | –
[2], partner 1.5 µg/mL | 0.948 | 0.881 | –
[3], partner 0.375 µg/mL | 0.887 | 0.868 | 0.674
[3], partner 0.75 µg/mL | 0.906 | 0.908 | –
[3], partner 1.5 µg/mL | 0.898 | 0.905 | 0.665
[5], partner 0.125 µg/mL | – | 0.946 | 0.884
[5], partner 0.25 µg/mL | – | 0.918 | 0.854
[5], partner 0.5 µg/mL | – | 0.892 | 0.826

[5], first compound 2 µg/mL, one replicate
Conditions | fitness
partner 0.125 µg/mL | 0.348
partner 0.25 µg/mL | 0.0742
partner 0.5 µg/mL | 0.066
